# Assays:
# Assay in all cases: microbe, parasite or virus in culture
# [1] = system: T1, Escherichia coli ATCC 25922; design: CLSI broth microdilution MIC; OD600 < 0.05 counted as complete growth inhibition; details: Escherichia coli, ATCC25922, 18 h; read-out: MIC of ancestor
# T1 construct: ATCC 25922
# Experimental: (§1) A final concentration of 5 × 10^5 bacterial cells per mL were inoculated into each well containing 60 µL MHB medium. Bacterial cultures were incubated at 37 °C with continuous shaking (Infors shaker, 900 rpm with 3 mm throw) for 18 hours (2 replicates from each). Cell growth was monitored by measuring the optical density (OD600 values, using Biotek Synergy microplate reader). MIC was defined as the antibiotic concentration of complete growth inhibition (i.e., OD600 < 0.05). Relative MIC was calculated as follows:1 relativeMIC=MICevolved/MICancestor This study focused on multiple bacterial strains, as follows. For the FoR and ALE experiments, 2 strains per species were chosen: E. coli ATCC 25922, K. pneumoniae ATCC 10031, A. baumannii ATCC 17978, and P. aeruginosa ATCC BAA-3107 as sensitive (SEN) strains, and E. coli NCTC13846, K. pneumoniae ATCC 700603, A. baumannii ATCC BAA-1605 and P. aeruginosa LESB58 as multi-drug resistant (MDR) strains. Functional metagenomic screens were performed with E. coli ATCC 25922 and K. pneumoniae ATCC 10031 strains. To determine the dose-kill properties of the different antibiotics, an E. coli strain (ATCC 25922) expressing a yellow fluorescent protein (pZS2R, YFP, CHL^R) and a red fluorescent protein (pZS2R, mCherry, CHL^R) was used.
# [2] = system: T2, Klebsiella pneumoniae ATCC 10031; design: CLSI broth microdilution MIC; OD600 < 0.05 counted as complete growth inhibition; details: Klebsiella pneumoniae, ATCC10031, 18 h; read-out: MIC of ancestor
# T2 construct: ATCC 10031
# Experimental: as §1
# [3] = system: T3, Acinetobacter baumannii ATCC 17978; design: CLSI broth microdilution MIC; OD600 < 0.05 counted as complete growth inhibition; details: Acinetobacter baumannii, ATCC17978, 18 h; read-out: MIC of ancestor
# T3 construct: ATCC 17978
# Experimental: as §1
# [4] = system: T4, Acinetobacter baumannii ATCC BAA 1605; design: CLSI broth microdilution MIC; OD600 < 0.05 counted as complete growth inhibition; details: Acinetobacter baumannii, BAA1605, 18 h; read-out: MIC of ancestor
# T4 construct: ATCC BAA-1605
# Experimental: as §1
# [5] = system: T5, Klebsiella pneumoniae ATCC 700603; design: CLSI broth microdilution MIC; OD600 < 0.05 counted as complete growth inhibition; details: Klebsiella pneumoniae, ATCC700603, 18 h; read-out: MIC of ancestor
# T5 construct: ATCC 700603
# Experimental: as §1
# [6] = system: T6, Escherichia coli NCTC 13846; design: CLSI broth microdilution MIC; OD600 < 0.05 counted as complete growth inhibition; details: Escherichia coli, NCTC13846, 18 h; read-out: MIC of ancestor
# T6 construct: NCTC 13846
# Experimental: as §1
# [7] = system: T7, K. pneumoniae ATCC 700603 (MDR); design: Serial broth microdilution MIC (CLSI), OD600 below 0.05, 384-well plates, MHB medium; details: Klebsiella pneumoniae, ATCC700603, 18 h; ancestor strain before evolution
# T7 construct: ATCC 700603
# Experimental: as §1
# E. coli ATCC 25922 = system: E. coli ATCC 25922; design: Serial broth microdilution MIC (CLSI), OD600 below 0.05, 384-well plates, MHB medium; details: Escherichia coli, ATCC25922, 18 h; ancestor strain before evolution
# Experimental: as §1
# K. pneumoniae ATCC 10031 = system: T8, K. pneumoniae ATCC 10031; design: Serial broth microdilution MIC (CLSI), OD600 below 0.05, 384-well plates, MHB medium; details: Klebsiella pneumoniae, ATCC10031, 18 h; ancestor strain before evolution
# T8 construct: ATCC 10031
# Experimental: as §1
# E. coli NCTC13846 (MDR) = system: T9, E. coli NCTC13846 (MDR); design: Serial broth microdilution MIC (CLSI), OD600 below 0.05, 384-well plates, MHB medium; details: Escherichia coli, NCTC13846, 18 h; ancestor strain before evolution
# T9 construct: NCTC 13846
# Experimental: as §1
# A. baumannii ATCC 17978 = system: T10, A. baumannii ATCC 17978; design: Serial broth microdilution MIC (CLSI), OD600 below 0.05, 384-well plates, MHB medium; details: Acinetobacter baumannii, ATCC17978, 18 h; ancestor strain before evolution
# T10 construct: ATCC 17978
# Experimental: as §1
SMILES,MIC [1] [mg/L],MIC [2] [mg/L],MIC [3] [mg/L],MIC [4] [mg/L],MIC [5] [mg/L],MIC [6] [mg/L],MIC [7] [mg/L],MIC (E. coli ATCC 25922) [mg/L],MIC (K. pneumoniae ATCC 10031) [mg/L],MIC (E. coli NCTC13846 (MDR)) [mg/L],MIC (A. baumannii ATCC 17978) [mg/L]
"CC(C)c1ccc(Cn2ccc3c4c(N)nc(NC5CC5)nc4ccc32)cc1 [SCH, SCH79797]",4,4,4,4,–,–,–,–,–,–,–
"C[C@@H](O)[C@H]1C(=O)N2C(C(=O)O)=C(S[C@H]3CC[S@@+]([O-])C3)S[C@H]12 [SUO, sulopenem]",0.0312,0.0312,1,–,0.5,0.0312,–,–,–,–,–
C[C@@H](O)[C@H]1C(=O)N2C(C(=O)O)=C(S[C@H]3CC[S@@+]([O-])C3)S[C@H]12 [sulopenem],–,–,–,–,–,–,0.5,0.0312,0.0312,0.0312,1

# From publication PMC11845477, “Exploring the principles behind antibiotics with limited resistance” (Nature Communications, 2025)
